Target: human active recombinant p38α-6His tagged (Homo sapiens, UniProt Q16539)
Assay: P38 Alpha Enzyme Assay (AlphaScreen, biotinylated-ATF2 substrate);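 note: 0.5 nM final p38α, reaction started with ATP and run 45 min at 37 °C, phospho-ATF2 read by antibody-based AlphaScreen, background wells quenched with EDTA before ATP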
Format: biochemical
Conditions: p38 alpha enzyme inhibition; means of replicate determinations; 4 h pre-incubation at 37° C.; SD of assay 0.2-0.3 log units

Sequence of human active recombinant p38α-6His tagged (Q16539 whole entry): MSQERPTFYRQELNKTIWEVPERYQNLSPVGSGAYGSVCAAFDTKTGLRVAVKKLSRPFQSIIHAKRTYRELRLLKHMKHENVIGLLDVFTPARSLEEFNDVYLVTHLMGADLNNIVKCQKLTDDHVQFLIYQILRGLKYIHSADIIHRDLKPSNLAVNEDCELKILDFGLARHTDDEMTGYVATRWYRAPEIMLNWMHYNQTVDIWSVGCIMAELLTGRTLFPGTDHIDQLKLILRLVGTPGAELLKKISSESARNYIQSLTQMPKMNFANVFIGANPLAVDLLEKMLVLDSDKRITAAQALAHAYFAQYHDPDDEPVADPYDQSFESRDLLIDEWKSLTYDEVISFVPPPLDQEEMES

Row | pIC50 | IC50 | Structure (SMILES)
1 | 9.4 | – | Cc1ccc(C(=O)NC2CC2)cc1-n1ccnc(NC2(c3ccccc3OCCN3CCNCC3)CC2)c1=O [Example 243, N-Cyclopropyl-4-methyl-3-[2-oxo-3-[[1-[2-[2-(1-piperazinyl)ethoxy]phenyl]cyclopropyl]amino]-1(2H)-pyrazinyl]-benzamide]
2 | 10.2 | – | CCNCCOc1ccccc1C1(Nc2nccn(-c3cc(C(=O)NC4CC4)cc(F)c3C)c2=O)CC1 [Example 262, N-Cyclopropyl-3-[3-[[1-[2-[2-(ethylamino)ethoxy]phenyl]cyclopropyl]amino]-2-oxo-1(2H)-pyrazinyl]-5-fluoro-4-methyl-benzamide]
3 | 9.5 | – | Cc1ccc(C(=O)NC2CC2)cc1-n1ccnc(NC2(c3ccccc3OCCNC3CCS(=O)(=O)C3)CC2)c1=O (stereo not shown) [Example 295, N-Cyclopropyl-3-[3-{[1-(2-{2-[(1,1-dioxidotetrahydrothiophen-3-yl)amino]ethoxy}phenyl)cyclopropyl]amino}-2-oxopyrazin-1(2H)-yl]-4-methylbenzamide]
4 | 10 | – | CNC[C@H](O)COc1ccccc1C(C)(C)Nc1nccn(-c2cc(C(=O)NC3CC3)cc(F)c2C)c1=O [Example 310, N-Cyclopropyl-3-fluoro-5-[3-{[1-(2-{[(2S)-2-hydroxy-3-(methylamino)propyl]oxy}phenyl)-1-methylethyl]amino}-2-oxopyrazin-1(2H)-yl]-4-methylbenzamide]
5 | 7.2 | – | Cc1ccc(C(=O)NC2CC2)cc1-n1cc(C#N)nc(NCc2ccccc2)c1=O [Example 104, 3-[5-Cyano-2-oxo-3-[(phenylmethyl)amino]-1(2H)-pyrazinyl]-N-cyclopropyl-4-methyl-benzamide]
6 | 9.5 | – | Cc1ccc(C(=O)NC2CC2)cc1-n1ccnc(NC2(c3cccc(F)c3OCCN)CC2)c1=O [Example 284, 3-[3-({1-[2-(2-Aminoethoxy)-3-fluorophenyl]cyclopropyl}amino)-2-oxopyrazin-1(2H)-yl]-N-cyclopropyl-4-methylbenzamide]
7 | 6.8 | – | Cc1ccc(C(=O)NC2CC2)cc1-n1ccnc(NCCc2cccc(O)c2)c1=O [Example 71, N-Cyclopropyl-3-[3-[[2-(3-hydroxyphenyl)ethyl]amino]-2-oxo-1(2H)-pyrazinyl]-4-methyl-benzamide]
8 | 6.6 | – | Cc1ccc(C(=O)NC2CC2)cc1-n1ccnc(N2CCN(C)CC2c2ccccc2)c1=O (stereo not shown) [Example 119, N-Cyclopropyl-4-methyl-3-[3-(4-methyl-2-phenyl-1-piperazinyl)-2-oxo-1(2H)-pyrazinyl]-benzamide]
9 | 10.1 | – | CCNC[C@H](O)COc1ccccc1C1(Nc2nccn(-c3cc(C(=O)NC4CC4)ccc3C)c2=O)CC1 [Example 303, N-cyclopropyl-3-[3-{[1-(2-{[(2S)-3-(ethylamino)-2-hydroxypropyl]oxy}phenyl)cyclopropyl]amino}-2-oxopyrazin-1(2H)-yl]-4-methylbenzamide]
10 | 9.5 | – | CNCCCc1ccccc1C(C)(C)Nc1nccn(-c2cc(C(=O)NC3CC3)cc(F)c2C)c1=O [Example 323, N-Cyclopropyl-3-fluoro-4-methyl-5-{3-[(1-methyl-1-{2-[3-(methylamino)propyl]phenyl}ethyl)amino]-2-oxopyrazin-1(2H)-yl}benzamide]
11 | 9 | – | Cc1ccc(C(=O)NC2CC2)cc1-n1ccnc(N[C@@H](c2ccccc2)[C@@H](C)CN2CCCC2(C)C)c1=O [Example 197, N-Cyclopropyl-3-[3-[[(1R,2S)-3-(2,2-dimethyl-1-pyrrolidinyl)-2-methyl-1-phenylpropyl]amino]-2-oxo-1(2H)-pyrazinyl]-4-methyl-benzamide]
12 | 9.3 | – | CCNCCOc1c(F)cccc1C1(Nc2nccn(-c3cc(C(=O)NC4CC4)ccc3C)c2=O)CC1 [Example 286, N-Cyclopropyl-3-{3-[(1-{2-[2-(ethylamino)ethoxy]-3-fluorophenyl}cyclopropyl)amino]-2-oxopyrazin-1(2H)-yl}-4-methylbenzamide]
13 | 9.2 | – | CONC(=O)c1ccc(C)c(-n2ccnc(N[C@@H](c3cccc4ccccc34)[C@@H](C)CN3CCOCC3)c2=O)c1 [Example 161, N-Methoxy-4-methyl-3-[3-[[(1R,2S)-2-methyl-3-(4-morpholinyl)-1-(1-naphthalenyl)propyl]amino]-2-oxo-1(2H)-pyrazinyl]-benzamide]
14 | 6.4 | – | Cc1ccc(C(=O)NC2CC2)cc1-n1ccnc(NCc2nc3ccccc3[nH]2)c1=O [Example 27, 3-[3-[(1H-Benzimidazol-2-ylmethyl)amino]-2-oxo-1(2H)-pyrazinyl]-N-cyclopropyl-4-methyl-benzamide]
15 | 10 | – | Cc1ccc(C(=O)NC2CC2)cc1-n1ccnc(NC2(c3ccccc3OC[C@@H](O)CNCCO)CC2)c1=O [Example 302, N-Cyclopropyl-3-[3-({1-[2-({(2S)-2-hydroxy-3-[(2-hydroxyethyl)amino]propyl}oxy)phenyl]cyclopropyl}amino)-2-oxopyrazin-1(2H)-yl]-4-methylbenzamide]
16 | 9.6 | – | Cc1ccc(C(=O)NC2CC2)cc1-n1ccnc(NC2(c3ccccc3OCCN3CCC[C@H]3CO)CC2)c1=O [Example 239, N-Cyclopropyl-3-[3-[[1-[2-[2-[(2S)-2-(hydroxymethyl)-1-pyrrolidinyl]ethoxy]phenyl]cyclopropyl]amino]-2-oxo-1(2H)-pyrazinyl]-4-methyl-benzamide]

Row | pIC50 | IC50 | Structure (SMILES)
17 | 7.8 | – | Cc1ccc(C)c(CNc2nccn(-c3cc(C(=O)NC4CC4)ccc3C)c2=O)c1 [Example 98, N-Cyclopropyl-3-[3-[[(2,5-dimethylphenyl)methyl]amino]-2-oxo-1(2H)-pyrazinyl]-4-methyl-benzamide]
18 | 9 | – | Cc1ccc(C(=O)NC2CC2)cc1-n1ccnc(N[C@@H](c2ccccc2)[C@@H](C)CNCC(C)C)c1=O [Example 182, N-Cyclopropyl-4-methyl-3-[3-[[(1R,2S)-2-methyl-3-[(2-methylpropyl)amino]-1-phenylpropyl]amino]-2-oxo-1(2H)-pyrazinyl]-benzamide]
19 | 8.9 | – | Cc1ccc(C(=O)NC2CC2)cc1-n1ccnc(N[C@@H](c2ccccc2)[C@@H](C)CN2CC3CC2CN3C)c1=O (stereo partly drawn) [Example 196, N-Cyclopropyl-4-methyl-3-[3-[[(1R,2S)-2-methyl-3-(5-methyl-2,5-diazabicyclo[2.2.1]hept-2-yl)-1-phenylpropyl]amino]-2-oxo-1(2H)-pyrazinyl]-benzamide]
20 | 8.4 | – | CCc1ccc(C(=O)NC2CC2)cc1-n1ccnc(NC(C)(C)c2ccccc2OCCNC)c1=O [Example 288, N-Cyclopropyl-4-ethyl-3-{3-[(1-methyl-1-{2-[2-(methylamino)ethoxy]phenyl}ethyl)amino]-2-oxopyrazin-1(2H)-yl}benzamide]
21 | 6.3 | – | Cc1ccc(C(=O)NC2CC2)cc1-n1ccnc(NCCc2ccccn2)c1=O [Example 9, N-Cyclopropyl-4-methyl-3-[2-oxo-3-[[2-(2-pyridinyl)ethyl]amino]-1(2H)-pyrazinyl]-benzamide]
22 | 9.7 | – | Cc1ccc(C(=O)NC2CC2)cc1-n1ccnc(NC2(c3ccccc3OCCNCC(C)(C)CO)CC2)c1=O [Example 242, N-Cyclopropyl-3-[3-[[1-[2-[2-[(3-hydroxy-2,2-dimethylpropyl)amino]ethoxy]phenyl]cyclopropyl]amino]-2-oxo-1(2H)-pyrazinyl]-4-methyl-benzamide]
23 | 9.4 | – | CONC(=O)c1ccc(C)c(-n2ccnc(NC(C)(C)c3ccccc3)c2=O)c1 [Example 112, N-Methoxy-4-methyl-3-[3-[(1-methyl-1-phenylethyl)amino]-2-oxo-1(2H)-pyrazinyl]]
24 | – | 126 nM | Cc1ccc(C(=O)NC2CC2)cc1-n1ccnc(N2CCc3ccccc3C2)c1=O [Example 30, N-Cyclopropyl-3-[3-(3,4-dihydro-2(1H)-isoquinolinyl)-2-oxo-1(2H)-pyrazinyl]-4-methyl-benzamide]
25 | 10.3 | – | Cc1c(F)cc(C(=O)NC2CC2)cc1-n1ccnc(NC(C)(C)c2ccccc2OCCNCC(C)(C)O)c1=O [Example 257, N-Cyclopropyl-3-fluoro-5-[3-[[1-[2-[2-[(2-hydroxy-2-methylpropyl)amino]ethoxy]phenyl]-1-methylethyl]amino]-2-oxo-1(2H)-pyrazinyl]-4-methyl-benzamide]
26 | 10 | – | Cc1ccc(C(=O)NC2CC2)cc1-n1ccnc(NC2(c3ccccc3OC[C@H](O)CNCCO)CC2)c1=O [Example 299, N-Cyclopropyl-3-[3-({1-[2-({(2R)-2-hydroxy-3-[(2-hydroxyethyl)amino]propyl}oxy)phenyl]cyclopropyl}amino)-2-oxopyrazin-1(2H)-yl]-4-methylbenzamide]
27 | 10.4 | – | Cc1c(F)cc(C(=O)NC2CC2)cc1-n1ccnc(NC2(c3ccccc3OCCN)CC2)c1=O [Example 314, 3-[3-({1-[2-(2-Aminoethoxy)phenyl]cyclopropyl}amino)-2-oxopyrazin-1(2H)-yl]-N-cyclopropyl-5-fluoro-4-methylbenzamide]
28 | 7.7 | – | Cc1cc(C)cc(CNc2nccn(-c3cc(C(=O)NC4CC4)ccc3C)c2=O)c1 [Example 95, N-Cyclopropyl-3-[3-[[(3,5-dimethylphenyl)methyl]amino]-2-oxo-1(2H)-pyrazinyl]-4-methyl-benzamide]
29 | 7.5 | – | CONC(=O)c1ccc(C)c(-n2ccnc(N3CCCC3)c2=O)c1 [Example 132, N-Methoxy-4-methyl-3-[2-oxo-3-(1-pyrrolidinyl)-1(2H)-pyrazinyl]-benzamide]
30 | 8.6 | – | CC(=O)N1CCN(C[C@H](C)[C@@H](Nc2nccn(-c3cc(C(=O)NC4CC4)ccc3C)c2=O)c2ccccc2)CC1 [Example 140, 3-[3-[[(1R,2S)-3-(4-Acetyl-1-piperazinyl)-2-methyl-1-phenylpropyl]amino]-2-oxo-1(2H)-pyrazinyl]-N-cyclopropyl-4-methyl-benzamide]
31 | 9.7 | – | Cc1c(F)cc(C(=O)NC2CC2)cc1-n1ccnc(NC2(c3ccccc3OCCNC[C@@H](C)O)CC2)c1=O [Example 265, N-Cyclopropyl-3-fluoro-5-[3-[[1-[2-[2-[[(2R)-2-hydroxypropyl]amino]ethoxy]phenyl]cyclopropyl]amino]-2-oxo-1(2H)-pyrazinyl]-4-methyl-benzamide]

Reference: patent US20120214822A1 (ASTRAZENECA AB, priority 2007, published 2012)
